Several values for one entry are separate records, joined by “and”; a condition that tells them apart may be missing. Equal values may be shown once.
What was measured:
HBV genotype C [1] = assay: Serum HBV DNA levels in HBV-infected humanized FRG model mice; format: in vivo
Text: (§1) For this study, Male FRG® (genotype Fah−/−/Rag2−/−/Il2rg−/− triple knockout mice on a C57BL/6 background (Yecuris) were transplanted with human hepatocytes when they were 1-2 months old. The human hepatocytes were allowed to repopulate the liver for approximately 6 months with periodic NTBC treatment to discourage growth of mouse hepatocytes. At 9 months of age the mice were given an intravenous inoculation of 4×10^8 genomes/kg HBV genotype C, which infected the human hepatocytes. After 2-3 months, serum HBV DNA levels reached a plateau indicating the human hepatocytes were maximally infected (mouse hepatocytes cannot be infected by HBV). Mice were one year old at the start of treatment with HBV RNAi agents, thus nearing the end of their life span.
(§2) Pre-treatment serum samples were taken on day −10 and day −3. Beginning on day 1, each mouse was administered an oral daily gavage with 0.01 mg/kg Entecavir dissolved in water to inhibit HBV replication. Daily dosing of Entecavir continued until the day mice were euthanized. Entecavir administration was expected to reduce serum HBV DNA in chronically infected human patients, but not reduce HBsAg.
(§3) Each mouse was also given a subcutaneous administration of 100 μl per 20 grams body weight containing the amount of HBV RNAi agent(s) formulated in phosphate buffered saline, or an equal volume of phosphate buffered saline without an HBV RNAi agent, on day 1 and on day 29 (if still alive on day 29), pursuant to the schedule as set forth in Table 47, directly above. […] The injections were performed between the skin and muscle (i.e. subcutaneous injections) into the loose skin over the neck and shoulder area.
Additionally, serum HBV DNA levels were determined from serum samples collected on days −10, −3, 8, 15, 22, 29, 36, and 40, pursuant to the procedure set forth in Example 2, above.

HBV genotype C [2] = assay: Serum HBsAg levels in HBV-infected humanized FRG model mice; format: in vivo; settings: Group A: daily oral 0.01 mg/kg Entecavir, PBS (no RNAi agent), individual mouse
Text: as §1, §2, §3
Serum was collected on day 8, day 15, day 22, day 29, day 36, and day 40 and serum Hepatitis B surface antigen (HBsAg) levels were determined pursuant to the procedure set forth in Example 2, above.

C=C1[C@H](CO)[C@@H](O)C[C@@H]1n1cnc2c(=O)[nH]c(N)nc21 [Entecavir]
viral replication (serum HBV DNA) (HBV genotype C [1]; Example 18, 0.01 mg/kg oral daily gavage, absence and presence of HBV RNAi agents): reduced viral replication | Serum HBV DNA levels normalized to the average of pre-treatment day −10 and day −3, Day 8 (HBV genotype C [1]; Group A: daily oral 0.01 mg/kg Entecavir, PBS (no RNAi agent), individual mouse, Day 8): 0.072 and 0.130 | Serum HBV DNA levels normalized to the average of pre-treatment day −10 and day −3, Day 15 (HBV genotype C [1]; Group A: daily oral 0.01 mg/kg Entecavir, PBS (no RNAi agent), individual mouse, Day 15): 0.038 and 0.075 | Serum HBV DNA levels normalized to the average of pre-treatment day −10 and day −3, Day 22 (HBV genotype C [1]; Group A: daily oral 0.01 mg/kg Entecavir, PBS (no RNAi agent), individual mouse, Day 22): 0.015 | Serum HBV DNA levels normalized to the average of pre-treatment day −10 and day −3, Day 29 (HBV genotype C [1]; Group A: daily oral 0.01 mg/kg Entecavir, PBS (no RNAi agent), individual mouse, Day 29): 0.027 | Serum HBV DNA levels normalized to the average of pre-treatment day −10 and day −3, Day 36 (HBV genotype C [1]; Group A: daily oral 0.01 mg/kg Entecavir, PBS (no RNAi agent), individual mouse, Day 36): 0.060 | HBsAg levels normalized to pre-treatment (day −3), Day 8 (HBV genotype C [2]; Day 8): 0.830 and 1.303 | HBsAg levels normalized to pre-treatment (day −3), Day 15 (HBV genotype C [2]; Day 15): 0.828 and 1.328 | HBsAg levels normalized to pre-treatment (day −3), Day 22 (HBV genotype C [2]; Day 22): 0.932 | HBsAg levels normalized to pre-treatment (day −3), Day 29 (HBV genotype C [2]; Day 29): 0.858 | HBsAg levels normalized to pre-treatment (day −3), Day 36 (HBV genotype C [2]; Day 36): 1.107
